Data: patent US11576913B2 (priority 2018, dated 2023)
Like-named read-outs stand apart in the source and are kept apart here.

Tests used:
[1] = tested on: subjects suffering from the Insomnia Disorder adult insomnia; assay type: in vivo, human; conditions: for mean change in DSST score net of placebo, compared with suvorexant: about 9 hours after administration, vs 10, 20 and 40 mg suvorexant, FIG. 11
Procedure: Literature data for indications of sleep efficacy and attendant residual effects after suvorexant administration, orally administered as BELSOMRA tablets at a single dose of 10 mg, 20 mg, and 40 mg, was available. Literature data for indications of sleep efficacy after zolpidem administration, orally administered as AMBIEN CR tablets, i.e., an extended-release tablet comprising the tartrate salt, in a single dose of 12.5 mg was also available. […] Additionally, the data shown in FIG. 8 through FIG. 11 are for the treatment effect net of placebo.

[2] = tested on: subjects suffering from the Insomnia Disorder adult insomnia; assay type: in vivo, human
Procedure: Following the evening-time dosing with study drug, subjects underwent eight hours of continuous PSG recording. Next-day residual effects were assessed by the DSST and the KSS evaluation, collected in that order, starting at approximately 30 minutes after “lights-on.” All tests were administered in the clinical unit, beginning 30 minutes after lights-on and periodically thereafter for approximately 16 hours post-lights-off, following completion of PSG recording. Each subject also completed a post-sleep questionnaire once after lights-on so that subjective impressions could be assessed about the “quality” and “quantity” of their sleep. Before the second night dosing in each dosing period, subjects were evaluated for any residual sleepiness. […] Subjects remained in the clinic until residual symptoms were minimized.
The well-known DSST is a paper-and-pencil neuropsychological test that explores attention and psychomotor speed and was therefore useful as an indication of next day residual effects, if any. When administered in multiple sessions over time, the DSST provided an objective indication of the change in performance.
Each subject was asked to match symbols with their corresponding digit as follows. […] The subject filled in as many squares as possible during the allowed 90 second time limit. The score was determined from the number of correct symbols. An untimed 7 blank square practice opportunity was provided before the 90 second time period began. Six different versions of the test were used to avoid learning effects that could occur if only a single version was used.
The DSST was administered starting approximately ½ hour after lights-on (i.e., about 9 hours post-dosing) and at about 1, 3, 4, 5, and 7 hours thereafter following completion of PSG recordings after each night of the baseline visit (Visit 2) and after each night of Dosing Periods 1-5.
The DSST results shown, other than for the baseline, are the mean results obtained from the DSST scores following all nights of Dosing Periods 1-5 for the indicated dose. The DSST results for the baseline are the mean results obtained following the first and second nights of the baseline visit. Note that for clarity of display purposes, in FIG. 6 many of the test results at each time period, e.g., at approximately ½ hour after lights-on/9 hours post-dosing, were staggered arbitrarily away from the actual time when the test was conducted.

[3] = clinical; assay type: in vivo, human; conditions: for mean fraction of dose excreted unchanged in urine over 48 hours (Fe48): day 1; for mean fraction of dose excreted unchanged in urine over 24 hours (Fe24): day 16
[4] = not given; remark: listed apart in the source
[5] = tested on: healthy subjects and subjects with insomnia; assay type: in vivo, human
Procedure: The highest doses tested in healthy subjects were for a 30-mg single dose and a 10-mg multiple dose (once daily nighttime dose for 14 days). The highest dose tested in subjects with insomnia was 10 mg.
The most frequent treatment-emergent adverse event (TEAEs) experienced by subjects was somnolence.

[6] = assay type: in vivo, rat; conditions: within 48 hours of oral dosing
Source text: Specifically, liquid scintillation counting (“LSC”) was used for the determination of total radiolabeled Compound (1C) material, i.e., the original or parent compound and its metabolites. […] Using ^14C as a radiolabel for pharmacokinetic studies is a recognized technique and embedding the radiolabel into the ring structure was done to limit migration or exchange of the radiolabel to non-Compound (1C)-related molecules. The specific radioactivity for the lot of [^14C]-Compound (1C) synthesized was 2.50 MBq/mg (67.6 μCi/mg) [3.49 MBq/mg (94.4 μCi/mg) if the material were to be present as the free base form] with a radiochemical purity of greater than 98.5% as determined by HPLC. The synthesized radiolabeled [^14C]-Compound (1C) was stored away from light at a temperature of −80° C. before use.
Following oral administration of [^14C]-Compound (1C) (in an appropriate vehicle, e.g., a methyl cellulose suspension) to the experimental animals, excreta samples were collected over specified time intervals. Urine samples were collected at fixed intervals post dosing. Fecal samples were homogenized and diluted prior to being solubilized. Aliquots of these samples were counted following the addition of liquid scintillation fluid thereto. Detection limits for radioactivity in the excreta samples were set at twice the background count (from blank samples) as determined by LSC. The [^14C]-Compound (1C) was stable for about 4-5 hours in urine at a temperature of about 25° C. and, when kept refrigerated at 4° C., for up to 15 days (rat urine) and 36 days (dog urine). Recovery of [^14C]-Compound (1C) from rat urine was typically from about 91.6 to about 99.1%.

[7] = 0.2 mg aqueous suspension (N =24)
[8] = 0.6 mg aqueous suspension (N =24)
[9] = 2.0 mg aqueous suspension (N =23)
[10] = 6.0 mg aqueous suspension (N =25)

## O=C(O)c1nc2ccccc2n([C@H]2C[C@H]3CCC[C@@H](C2)N3C2CC3CCCC(C3)C2)c1=O (stereo partly shown) [Compound (1C)]
[1]; 0.5 mg Compound (1C) vs 10 mg or 20 mg suvorexant, Night 1, FIG. 9
  mean improvement in WASO net of placebo, compared with suvorexant: nearly comparable to
[1]; 0.5 mg Compound (1C) vs 12.5 mg zolpidem, Night 1, FIG. 9
  mean improvement in WASO net of placebo, compared with zolpidem: far greater than
[1]; 0.5 mg
  mean change in DSST score net of placebo, compared with suvorexant: small and comparable
[1]; 1.0 mg Compound (1C) vs 10 mg suvorexant, Night 1, FIG. 8
  mean improvement in SE net of placebo, compared with suvorexant: greater than
[1]; 1.0 mg Compound (1C) vs 12.5 mg zolpidem, Night 1, FIG. 8
  mean improvement in SE net of placebo, compared with zolpidem: greater than
[1]; 1.0 mg Compound (1C) vs 40 mg suvorexant, Night 1, FIG. 9
  mean improvement in WASO net of placebo, compared with suvorexant: nearly comparable to
[1]; 1.0 mg
  mean change in DSST score net of placebo, compared with suvorexant: small and comparable
[1]; 6.0 mg Compound (1C) vs 10 mg suvorexant, Night 1, FIG. 10
  mean improvement in LPS net of placebo, compared with suvorexant: comparable to
[1]; 6.0 mg Compound (1C) vs 40 mg suvorexant, Night 1, FIG. 8
  mean improvement in SE net of placebo, compared with suvorexant: comparable to
[1]; up to 6.0 mg Compound (1C) vs 20 mg suvorexant or 12.5 mg zolpidem, Night 1, FIG. 10
  mean improvement in LPS net of placebo, compared with suvorexant or zolpidem: not as great as
[2]; 0.5 mg, about 9 to about 16 hours post-dosing
  next day residual effects by mean DSST results vs placebo: no next day residual effects
[2]; 1.0 mg, about 9 to about 16 hours post-dosing
  next day residual effects by mean DSST results vs placebo: no next day residual effects
[2]; 3.0 mg, deviations at about 9, 10, 12, and 13 hours
  next day residual effects by mean DSST results vs placebo: minimal next day residual effects
[2]; 6.0 mg, each of the testing times
  next day residual effects by mean DSST results vs placebo: some next day residual effects
[7]
  Ae, Mean: 0.2232 mg
  Fe, Mean (fraction of dose excreted unchanged in urine over 24 hours): 111.60%
[8]
  Ae, Mean: 0.6891 mg
  Fe, Mean (fraction of dose excreted unchanged in urine over 24 hours): 114.84%
[9]
  Ae, Mean: 2.165 mg
  Fe, Mean (fraction of dose excreted unchanged in urine over 24 hours): 108.26%
[10]
  Ae, Mean: 6.653 mg
  Fe, Mean (fraction of dose excreted unchanged in urine over 24 hours): 110.88%
[3]; 0.6 mg
  mean fraction of dose excreted unchanged in urine over 48 hours (Fe48): 96%
  mean fraction of dose excreted unchanged in urine over 24 hours (Fe24): 90%
[3]; 2 mg
  mean fraction of dose excreted unchanged in urine over 48 hours (Fe48): 100%
  mean fraction of dose excreted unchanged in urine over 24 hours (Fe24): 102%
[3]; 10 mg
  mean fraction of dose excreted unchanged in urine over 48 hours (Fe48): 84%
  mean fraction of dose excreted unchanged in urine over 24 hours (Fe24): 81%
[3]; across the dose range, days 1 and 16
  time of urinary excretion of most of the unchanged compound: during the first 8 hours
[3]; human, in vivo, all dose levels, days 1 and 16, read-out: mean CLr
  CL renal: 274 to 354 mL/min
[4]; Cohort 1, 3 mg
  Mean % Dose Excreted Unchanged: 89%
  Mean Total Amount Excreted Unchanged: 2.66 mg
[4]; Cohort 2, 10 mg
  Mean % Dose Excreted Unchanged: 70%
  Mean Total Amount Excreted Unchanged: 6.95 mg
[4]; Cohort 3, 30 mg
  Mean % Dose Excreted Unchanged: 28%
  Mean Total Amount Excreted Unchanged: 8.37 mg
[5]; 6 mg, nighttime dosing, healthy subjects and those with insomnia
  tolerability: well tolerated
[5]; across all tested dose levels
  safety and tolerability: safe and well tolerated
  serious adverse events (SAEs): no serious adverse events
[5]; completed clinical studies
  most frequent treatment-emergent adverse event: somnolence
  vital signs and electrocardiograms (ECGs): no clinically significant findings
[5]; dose equal or lower than 2 mg, after 8 hours post dosing
  next day residual effects: dose-dependent and generally decreased (back to placebo levels)
[5]; including crystalluria or hematuria
  laboratory findings: No concerning laboratory findings
[6]; Rat (female)
  Average % Elimination, Fecal: 27.9%
  Average % Elimination, Fecal + Urinary: 94.7%
  Average % Elimination, Urinary: 66.8%
[6]; Rat (male)
  Average % Elimination, Fecal: 41.6%
  Average % Elimination, Fecal + Urinary: 96.0%
  Average % Elimination, Urinary: 54.4%
